Literature values, collected in patent US6815409B2, “Gel laundry detergent and/or pretreater which piles up after dispensing” (Unilever Home & Personal Care USA division of Conopco, Inc., priority 2002, dated 2004).

Conditions: chain length 16; cited from Proc. R. Soc. London, A133, 140, 1931

In the case of `CCCCCCCCCCCCCCCC(=O)O` [Fatty acid chain length 16], the “Measured pKa value” is listed as 8.5.
